The values that follow come from PubChem BioAssay AID651630 (Sanford-Burnham Center for Chemical Genomics, 2012).

One assay has as its system DAPI. Briefly: triacylglycerol accumulation inhibitor potency, dose response, cell-based, panel, Nile Red and DAPI fluorescence, H9c2 (AID 651630).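 Further: cells exposed to compound overnight before fixation and staining.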 The note with it: H9c2 cells, DAPI nuclear fluorescence (cytotoxicity counter-readout), oleic acid.
In a further assay the test system is TAG. The assay is described as above. The note with it: H9c2 cells, Nile Red TAG fluorescence, oleic acid.

pIC50: −log10 of the molar value. Calls of active or inactive are those of the source.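 How the source made its calls: active means lipid-stain IC50 at or below a set limit, with nuclear-stain toxicity IC50 at least five times higher; inactive means the rest.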

By IC50 is commonly meant the concentration needed to halve the response being measured. As usually defined, the pIC50 is the IC50 on a negative log10 scale, so that one unit is a factor of ten. As to `CSc1nc(N(C)NC(=O)c2ccccc2)c2ccccc2n1`, the IC50 cytotoxicity (DAPI nuclear signal decrease) was > 25 µM (inactive) in the assay on DAPI (mean of runs), above 25 µM with DAPI (run 1) and above 25 µM in the assay on DAPI (run 2). For the same molecule, in the assay on TAG (mean of runs), the IC50 was 17.8 µM (inactive). In addition, the figures for the pIC50 with TAG (run 1) and in the assay with TAG (run 2) were 4.66 and 4.87, respectively.
For the molecule `CC1(C)CCCN(Cc2c(O)ccc3c(=O)c(-c4nc5ccccc5s4)c(N)oc23)C1`, the IC50 cytotoxicity (DAPI nuclear signal decrease) in the assay on DAPI (mean of runs) is > 25 µM (inactive); in the assay with DAPI (run 1) it was above 25 µM; in the assay on DAPI (run 2), above 25 µM. The pIC50 with TAG (mean of runs), in the assay with TAG (run 1) and with TAG (run 2) was 5.00 in each case.
As for `Cc1ccc(Cl)cc1NC(=S)N/N=C/c1cccc2ccccc12`, the IC50 cytotoxicity (DAPI nuclear signal decrease) in the assay on DAPI (mean of runs) is > 25 µM (inactive); in the assay on DAPI (run 1) it was above 25 µM; in the assay with DAPI (run 2) it was above 25 µM. The pIC50 in the assay with TAG (run 1) is 4.70; in the assay on TAG (run 2) it was below 4.60.
With `Cc1ccc(Cn2c(C(C)Nc3nc(-c4ccc(Cl)c([N+](=O)[O-])c4)cs3)nc3cc(C(F)(F)F)ccc32)cc1` (configuration not stated), the IC50 cytotoxicity (DAPI nuclear signal decrease) with DAPI (run 1) is above 25 µM; with DAPI (run 2), 7.97 µM. Also, the pIC50 in the assay on TAG (mean of runs) was 5.08; in the assay with TAG (run 1), 5.17; in the assay on TAG (run 2), 5.00.
On to `O=C(Nc1cc2c3c(c1)C1CCCC1CN3CC1CCCC21)c1ccc([N+](=O)[O-])cc1` (configuration not stated), for which the IC50 cytotoxicity (DAPI nuclear signal decrease) is > 25 µM (inactive) with DAPI (mean of runs), above 25 µM with DAPI (run 1) and above 25 µM with DAPI (run 2). Also, the pIC50 with TAG (mean of runs) is 4.91; with TAG (run 1), 4.95; in the assay with TAG (run 2), 4.88.
As to `Cc1cc(N/N=C/c2ccc(F)cc2)nc(-n2nc(C)cc2C)n1`, the IC50 cytotoxicity (DAPI nuclear signal decrease) in the assay with DAPI (mean of runs) is > 25 µM (inactive); in the assay with DAPI (run 1), above 25 µM; with DAPI (run 2), above 25 µM. Also, the IC50 with TAG (mean of runs) was > 25 µM (inactive). Moreover, the pIC50 in the assay on TAG (run 1) and in the assay with TAG (run 2) was below 4.60 throughout.
For the molecule `CCc1nn2c(N3CCOCC3)cc(C)nc2c1-c1ccc(F)cc1`, the IC50 cytotoxicity (DAPI nuclear signal decrease) is > 25 µM (inactive) with DAPI (mean of runs), above 25 µM with DAPI (run 1) and above 25 µM in the assay on DAPI (run 2). The pIC50 in the assay on TAG (run 1) is below 4.60; in the assay with TAG (run 2), above 6.11.
With `COC(=O)[C@]1(Cc2ccccc2)N[C@H](c2ccc(-c3cccc(Cl)c3)c(OC)c2)[C@@H]2C(=O)N(C)C(=O)[C@@H]21`, the IC50 cytotoxicity (DAPI nuclear signal decrease) was > 25 µM (inactive) with DAPI (mean of runs), above 25 µM in the assay on DAPI (run 1) and above 25 µM in the assay with DAPI (run 2). Moreover, the IC50 in the assay with TAG (mean of runs) was > 25 µM (inactive). For the same molecule, the pIC50 in the assay on TAG (run 1) and in the assay on TAG (run 2) was below 4.60 throughout.
For the molecule `Cc1ccc(Cn2cc(/C=N/NC(=O)Cc3nnc(NC(=O)c4ccc(C)cc4)s3)c3ccccc32)cc1`, the IC50 cytotoxicity (DAPI nuclear signal decrease) in the assay on DAPI (mean of runs) was 16 µM (inactive); in the assay with DAPI (run 1), 13.1 µM; in the assay on DAPI (run 2), 19 µM. Moreover, in the assay with TAG (mean of runs), the IC50 was > 25 µM (inactive). Further, the pIC50 in the assay on TAG (run 1) and with TAG (run 2) was below 4.60 throughout.
As for `COc1cc(/C=C2\Oc3ccc(C#Cc4ccc(O)cc4)cc3C2=O)cc(OC)c1`, the figures for the IC50 cytotoxicity (DAPI nuclear signal decrease) with DAPI (mean of runs), in the assay with DAPI (run 1) and in the assay on DAPI (run 2) were 4.72 µM (inactive), 5.07 µM and 4.36 µM, respectively. For the same molecule, the pIC50 in the assay with TAG (mean of runs) is 5.52; with TAG (run 1), 5.51; in the assay with TAG (run 2), 5.53.
As to `CC(=O)OCC(=O)[C@@]12OC3(CCCC3)O[C@@H]1C[C@H]1[C@@H]3CCC4=CC(=O)C=C[C@]4(C)[C@@]3(F)[C@@H](O)C[C@@]12C`, the IC50 cytotoxicity (DAPI nuclear signal decrease) in the assay with DAPI (run 1) and with DAPI (run 2) was above 25 µM in each case. For the same molecule, the pIC50 with TAG (mean of runs) was 5.55; in the assay with TAG (run 1), 5.57; in the assay on TAG (run 2), 5.53.
